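Grown in 96-well plates, cells were treated for 48 hours with each compound at five concentrations. Insufficient inhibition: endpoint recorded as highest concentration tested. GI50 = concentration required for 50% inhibition of growth.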 Active and inactive are the calls of the source. No stated cut-off is given here; in the data, active = GI50 up to about 1.1 µM and inactive = higher.
How the values were obtained:
Assay in all cases: NCI tumour cell line growth inhibition, 48 h
[1] = system: A549
[2] = system: DU-145
[3] = system: SF-268
[4] = system: MDA-MB-435
[5] = system: NCI-H23
[6] = system: HOP-62
[7] = system: RXF 393
[8] = system: OVCAR-4
[9] = system: TK-10
[10] = system: SF-539
[11] = system: CAKI-1
[12] = system: HOP-92
[13] = system: SK-MEL-2
[14] = system: 786-0
[15] = system: SNB-19
[16] = system: NCI/ADR-RES
[17] = system: HCC 2998
[18] = system: SR
[19] = system: MCF7
[20] = system: SK-OV-3
[21] = system: SF-295
[22] = system: NCI-H460
[23] = system: OVCAR-3
[24] = system: NCI-H522
[25] = system: SK-MEL-5
[26] = system: HT-29
[27] = system: HCT-15
[28] = system: RPMI-8226
[29] = system: ACHN
[30] = system: K562
[31] = system: BT-549
[32] = system: KM12
[33] = system: UO-31
[34] = system: U-251
[35] = system: CCRF-CEM
[36] = system: HL-60
[37] = system: UACC-257
[38] = system: Hs-578T
[39] = system: A498
[40] = system: UACC-62
[41] = system: NCI-H226
[42] = system: M14
[43] = system: COLO 205
[44] = system: HCT-116
[45] = system: T47D
[46] = system: MDA-N
[47] = system: SN12C
[48] = system: IGROV-1
[49] = system: OVCAR-5
[50] = system: OVCAR-8
[51] = system: EKVX
[52] = system: MOLT-4
[53] = system: SK-MEL-28
[54] = system: Malme-3M
[55] = system: PC-3
[56] = system: MDA-MB-231
[57] = system: SNB-75
[58] = system: SW-620

## COC(=O)c1c(O)ccc2c1c1c(n2CCc2ccc(OC)c(OC)c2)C(=O)c2ccccc2C1=O
[1]
  GI50: 14.5 µM (inactive)
[2]
  GI50: 15.6 µM (inactive)
[3]
  GI50: 17.5 µM (inactive)
[4]
  GI50: 14 µM (inactive)
[5]
  GI50: 15.6 µM (inactive)
[6]
  GI50: 16 µM (inactive)
[7]
  GI50: 16.8 µM (inactive)
[8]
  GI50: 13.7 µM (inactive)
[9]
  GI50: 21.6 µM (inactive)
[10]
  GI50: 14.4 µM (inactive)
[11]
  GI50: 17.5 µM (inactive)
[12]
  GI50: 14.6 µM (inactive)
[13]
  GI50: 16.4 µM (inactive)
[14]
  GI50: 13.8 µM (inactive)
[15]
  GI50: 22.5 µM (inactive)
[16]
  GI50: 10.8 µM (inactive)
[17]
  GI50: 4.29 µM (inactive)
[18]
  GI50: 14.8 µM (inactive)
[19]
  GI50: 17.9 µM (inactive)
[20]
  GI50: 19.4 µM (inactive)
[21]
  GI50: 19.6 µM (inactive)
[22]
  GI50: 5.01 µM (inactive)
[23]
  GI50: 16.3 µM (inactive)
[24]
  GI50: 2.69 µM (inactive)
[25]
  GI50: 11.4 µM (inactive)
[26]
  GI50: 3.13 µM (inactive)
[27]
  GI50: 12.7 µM
[28]
  GI50: 6.55 µM (inactive)
[29]
  GI50: 18.2 µM (inactive)
[30]
  GI50: 20.5 µM (inactive)
[31]
  GI50: 10.9 µM (inactive)
[32]
  GI50: 13 µM (inactive)
[33]
  GI50: 13.7 µM (inactive)
[34]
  GI50: 18.4 µM (inactive)
[35]
  GI50: 9.79 µM (inactive)
[36]
  GI50: 23.4 µM (inactive)
[37]
  GI50: 16.6 µM (inactive)
[38]
  GI50: 10.9 µM (inactive)
[39]
  GI50: 15.9 µM (inactive)
[40]
  GI50: 15.2 µM (inactive)
[41]
  GI50: 19.6 µM (inactive)
[42]
  GI50: 14.2 µM (inactive)
[43]
  GI50: 3.57 µM (inactive)
[44]
  GI50: 12.7 µM (inactive)
[45]
  GI50: 12 µM (inactive)
[46]
  GI50: 10.9 µM (inactive)
[47]
  GI50: 21.9 µM (inactive)
[48]
  GI50: 14.6 µM (inactive)
[49]
  GI50: 19.7 µM (inactive)
[50]
  GI50: 10.5 µM (inactive)
[51]
  GI50: 20.5 µM (inactive)
[52]
  GI50: 9.25 µM (inactive)
[53]
  GI50: 11.6 µM (inactive)
[54]
  GI50: 14 µM (inactive)
[55]
  GI50: 14.9 µM (inactive)
[56]
  GI50: 22.4 µM (inactive)

## COC(NC(N)=O)C(=O)O (stereo not drawn)
[1]
  GI50: > 100 µM (inactive)
[2]
  GI50: > 100 µM (inactive)
[3]
  GI50: > 100 µM (inactive)
[4]
  GI50: > 100 µM (inactive)
[5]
  GI50: > 100 µM (inactive)
[6]
  GI50: > 100 µM (inactive)
[57]
  GI50: > 100 µM (inactive)
[7]
  GI50: > 100 µM (inactive)
[8]
  GI50: > 100 µM (inactive)
[9]
  GI50: > 100 µM (inactive)
[58]
  GI50: > 100 µM (inactive)
[10]
  GI50: > 100 µM (inactive)
[11]
  GI50: > 100 µM (inactive)
[12]
  GI50: > 100 µM (inactive)
[13]
  GI50: > 100 µM (inactive)
[14]
  GI50: > 100 µM (inactive)
[15]
  GI50: > 100 µM (inactive)
[16]
  GI50: > 100 µM (inactive)
[18]
  GI50: > 100 µM (inactive)
[19]
  GI50: > 100 µM (inactive)
[20]
  GI50: > 100 µM (inactive)
[21]
  GI50: > 100 µM (inactive)
[22]
  GI50: > 100 µM (inactive)
[23]
  GI50: > 100 µM (inactive)
[24]
  GI50: > 100 µM (inactive)
[25]
  GI50: > 100 µM (inactive)
[26]
  GI50: > 100 µM (inactive)
[27]
  GI50: > 100 µM
[28]
  GI50: > 100 µM (inactive)
[29]
  GI50: > 100 µM (inactive)
[30]
  GI50: > 100 µM (inactive)
[31]
  GI50: > 100 µM (inactive)
[32]
  GI50: > 100 µM (inactive)
[33]
  GI50: > 100 µM (inactive)
[34]
  GI50: > 100 µM (inactive)
[35]
  GI50: 11 µM (inactive)
[36]
  GI50: 0.495 µM (active)
[37]
  GI50: > 100 µM (inactive)
[38]
  GI50: > 100 µM (inactive)
[39]
  GI50: > 100 µM (inactive)
[40]
  GI50: > 100 µM (inactive)
[41]
  GI50: > 100 µM (inactive)
[42]
  GI50: > 100 µM (inactive)
[43]
  GI50: > 100 µM (inactive)
[44]
  GI50: > 100 µM (inactive)
[45]
  GI50: > 100 µM (inactive)
[46]
  GI50: > 100 µM (inactive)
[47]
  GI50: > 100 µM (inactive)
[48]
  GI50: > 100 µM (inactive)
[49]
  GI50: > 100 µM (inactive)
[50]
  GI50: > 100 µM (inactive)
[51]
  GI50: > 100 µM (inactive)
[52]
  GI50: > 100 µM (inactive)
[53]
  GI50: > 100 µM (inactive)
[54]
  GI50: > 100 µM (inactive)
[55]
  GI50: > 100 µM (inactive)
[56]
  GI50: > 100 µM (inactive)

Source: ChEMBL document CHEMBL1201862, “PubChem BioAssay data set” (2004)
